Reference: publication PMC3844044 (Journal of medicinal chemistry, 2013)

What was measured:
[1] = target: purified human 20S proteasome (Homo sapiens, UniProt P28074); assay: Inhibition of the chymotryptic-like activity of purified human 20S proteasome; assay type: biochemical
[2] = system: NF-κB mediated gene transcription; details: read-out: NF-κB-luc IC50; Table 1; cell culture, previously reported; cited from earlier work
[3] = conversion to inactive aromatic imidazole 5; ref 13b; cited from earlier work
[4] = system: bortezomib-resistant THP-1 cell line (BTZ500); assay: Cell viability, bortezomib-resistant THP-1 cell line; assay type: cell-based, human
[5] = system: human myelomonocytic THP-1 cells; assay: Cell viability, THP-1 wild type cells, 72 hours; assay type: cell-based; details: screened at 10 μM and 5 μM
[6] = system: proteasome; details: read-out: reported IC50 for proteasome inhibition; cited from earlier work

Compound: c1ccc(CN2CCN=C2c2ccccc2)cc1 [compound 4]
- proteasome inhibitory activity (in words) [1]: depleted of activity
- IC50 [2]: > 10000 nM

Compound: CCOC(=O)[C@]1(c2ccccc2)N=C(c2ccccc2)N(C(C)=O)[C@@H]1c1ccccc1 [compound 12]
- proteasome inhibitory activity (in words) [1]: depleted of activity

Compound: c1ccc(CN2C(c3ccccc3)=N[C@H](c3ccccc3)[C@H]2c2ccccc2)cc1 [compound 2]
- stability upon standing [3]: slowly isomerised and dehydrogenated

Compound: CCOC(=O)[C@]1(c2ccccc2)N=C(c2ccccc2)N(Cc2ccccc2)[C@@H]1c1ccncc1 [compound 20]
- proteasome inhibitory activity (in words) [1]: inactive

Compound: CCOC(=O)[C@]1(c2ccccc2)N=C(c2ccccc2)N[C@@H]1c1ccccc1 [compound 11]
- proteasome inhibitory activity (in words) [1]: depleted of all activity

Compound: CCOC(=O)[C@]1(c2ccccc2)N=C(c2ccc(OC)cc2)N(Cc2ccccc2)[C@@H]1c1ccc(N)cc1 [compound 37]
- cytotoxic activity (in words), bortezomib-resistant BTZ500 ([4]; screened at 10 μM and 5 μM): weak cytotoxic activity
- cytotoxic activity (in words), THP-1 wild type [5]: weak cytotoxic activity

Compound: c1ccc(Cn2c(-c3ccccc3)nc(-c3ccccc3)c2-c2ccccc2)cc1 [compound 5]
- proteasome inhibitory activity (in words) [1]: depleted of activity
- IC50 [2]: > 10000 nM

Compound: c1ccc(CN2C(c3ccccc3)=N[C@@H](c3ccccc3)[C@H]2c2ccccc2)cc1 [compound 3]
- stability upon standing [3]: slowly isomerised and dehydrogenated
- proteasome inhibitory activity (in words) [1]: depleted of activity
- IC50 [2]: > 10000 nM

Compound: CCOC(=O)[C@]1(c2ccccc2)N=C(c2ccccc2)N(Cc2ccccc2)[C@@H]1c1ccc(NCc2ccccc2)cc1 [compound 29]
- IC50 ([1]; IC50 proteasome inhibition): 500 nM

Compound: CCOC(=O)[C@]1(c2ccccc2)N=C(c2ccccc2)N(S(=O)(=O)c2ccc(C)cc2)[C@@H]1c1ccccc1 [compound 14]
- proteasome inhibitory activity (in words) [1]: depleted of activity

Compound: CCOC(=O)[C@]1(c2ccccc2)N=C(c2ccccc2)N(C(=O)c2ccccc2)[C@@H]1c1ccccc1 [compound 13]
- proteasome inhibitory activity (in words) [1]: depleted of activity

Compound: CC(C)C[C@H](NC(=O)[C@H](Cc1ccccc1)NC(=O)c1cnccn1)B(O)O [Bortezomib, bortezomib, reference compound]
- % cell viability Resistant ([4]; BTZ500, bortezomib at 0.5 μM, 72 hours): unable to induce significant cytotoxicity
